We go through one compound from patent publication US12128035B2, “Activating pyruvate kinase R” (Novo Nordisk Health Care AG, priority 2021, dated 2024).

Each structure is given as a SMILES string.

The test system of this experiment is sickle RBCs. Briefly: Phase 1: Lorrca Osmoscan in SCD patients. The format is in vivo, human. On the procedure:
In this study, SAD/MAD cohorts are randomized (3 to 1) to receive Compound 1 or placebo (P). Compound 1 was evaluated first in 4 healthy SAD cohorts and 4 healthy MAD (14-day dosing period) cohorts. Based on the safety, and PK/PD profile from HS, Compound 1 is then evaluated in 1 SCD SAD cohort and 2 SCD MAD cohorts. Specifically, based on the safety and pharmacokinetic/pharmacodynamics (PK/PD) profile in healthy volunteer studies, Compound 1 is evaluated in patients (pts) with SCD, first in a single dose (SD or SAD) cohort and then in multiple-dose (MD or MAD) cohorts (14-day and 12-week). Safety assessments include AEs, vital signs, ECGs and laboratory parameters. PK/PD blood sampling was performed on Day 1 (SAD/MAD) and Day 14 (MAD) and up to 72 h after the last dose and at the end-of-study visit. PD parameters included 2,3-DPG, ATP, and p50 in all cohorts with additional PD studies (including oxygen scan) performed only in the SCD cohorts. PD parameters included 2,3-DPG, ATP, p50, RBC deformability with controlled deoxygenation and reoxygenation (Lorrca® oxygen scan) and varying osmolality (Lorrca® osmoscan)). To maintain study blind, pt identifiers were removed when needed.
Functional evaluation of RBCs was performed using Laser-Optical Rotational Red Cell Analyzer (Lorrca®) technology (RR Mechatronics, Zwaag, The Netherlands). Osmoscan was performed for healthy subjects, and both Oxygenscan and Osmoscan analyses were undertaken for the patients with SCD. In brief, the Oxygenscan allows for the measurement and visualisation of RBC elongation in shear stress in an oxygen gradient, during deoxygenation and re-oxygenation, expressed as the elongation index (EI). […] Evaluated Osmoscan parameters included: EImax; Omin (osmolality at ELmax; hypotonic region), which corresponds to the value of the hypotonic osmolality at which 50% of the cells hemolyse in an osmotic fragility assay and provides information on the initial surface-to-volume ratio of the RBCs; and Ohyper (osmolality corresponding to 50% of the EImax; hypertonic region), which correlates with the initial intracellular viscosity of the cell sample. […]
The effects of a single dose of Compound 1 (700 mg) versus placebo on oxygen scan, oxygen affinity (p50), and osmoscan in SCD patients were evaluated. […] In order to measure the impact of Compound 1 on this critical function, the effect of Compound 1 compared to placebo on the deformability of SCD RBCs across an osmolality gradient was evaluated. […]

As to `O=C([C@H](CO)c1ccccc1)N1CC2=C(C1)CN(S(=O)(=O)c1cnc3c(c1)OCCO3)C2` (single isomer, unassigned) [Compound 1], the “EImax (Osmoscan)” value (SCD single 700 mg, Post-dose (24 hours), median (range), pre-dose 0.483 (0.46, 0.57)) was 0.478 (0.46, 0.57). In addition, the “Omin (Osmoscan)” value (SCD single 700 mg, Post-dose (24 hours), median (range), pre-dose 108 (105, 121)) is recorded as 117 (106, 124). The “Ohyper (Osmoscan)” value (SCD single 700 mg, Post-dose (24 hours), median (range), pre-dose 380 (371, 399)) is on record as 400 (371, 412). Further, the “time to return to baseline of Oxygenscan/Osmoscan effects” value (SCD, after the single 700 mg dose) was 3 to 7 days.
